Assay results published in patent US7524861B2, “Process for the preparation of a hydrate of an anthranilic acid derivative” (priority 2002, dated 2009).

Columns and labels:
Format in all cases: cell-based
2780AD = experiment: Potentiation of toxicity of various cytotoxic agents, potentiation index; conditions: Taxol, compound 10 nM
Procedure: (§1) (b) Cells were cultured for four days with a titration of doxorubicin (0.263 nM-[…]) in the presence of a fixed concentration of each compound. Proliferation was quantified as described by Skehen et al, loc cit. The IC50 (concentration required to reduce proliferation to 50% of the untreated controls) for doxorubicin alone and with each compound were derived and used to calculate the potentiation index (PI):
(§2) The potentiation indices of a selection of compounds using a variety of cell lines and a variety of cytotoxics other than doxorubicin were measured following the protocol described above for doxorubicin, and the results are shown in Table D.

H69/LX4 = experiment: as above; conditions: for Potentiaton Index at RMA Concentration 10 nM: compound 10 nM; for Potentiaton Index at RMA Concentration 30 nM: compound 30 nM
Procedure: as §1, §2

AR 1.0 cells = experiment: Potentiation of doxorubicin toxicity: proliferation assay, compound titrated against fixed doxorubicin (sulphorhodamine B); conditions: Mus musculus, 96 h; with fixed doxorubicin (0.34 mm); four day incubation; read-out: Toxicity with Cytotoxic Agent (IC50 mM)
Procedure: The EMT6 mouse mammary carcinoma cell line and the MDR resistant subline AR 1.0 were cultured in RPMI 1640 medium containing 10% foetal calf serum and 2 mM glutamine at 37° C. in 5% CO2. Cells were passaged between 1 in 200 and 1 in 2000 in the case of the parental cell line and between 1 in 20 and 1 in 200 in the case of the MDR resistant subline, after trypsinisation (0.25% trypsin, 0.2 gl^−1, EDTA).
(a) Selected compounds of formula (I) were examined for their ability to potentiate the toxicity of doxorubicin in AR 1.0 cells. In initial proliferation assays compounds were titrated against a fixed concentration of doxorubicin ([…]) which alone is non-toxic to AR 1.0 cells. After a four day incubation with doxorubicin proliferation was measured using the colorimetric sulphorhodamine B assay (Skehan et al; J Natl. Cancer Inst. 82 pp 1107-1112 (1990)).

SMILES | IC50 (AR 1.0 cells) [nM] | also measured
COc1cc2c(cc1OC)CN(CCc1ccc(NC(=O)c3sccc3NC(=O)c3cnc4ccccc4c3)cc1)CC2 [Compound 3, Quinoline-3-carboxylic acid (2-{4-[2-(6,7-dimethoxy-3,4-dihydro-1H-isoquinolin-2-yl)-ethyl]-phenylcarbamoyl}-thiophen-3-yl)-amide] |  | Potentiaton Index at RMA Concentration 10 nM (2780AD): 18; Potentiaton Index at RMA Concentration 10 nM (H69/LX4; Vincristine): 2; Potentiaton Index at RMA Concentration 30 nM (H69/LX4; Vincristine): 79
COc1cc2c(cc1OC)CN(CCc1ccc(NC(=O)c3c(C)csc3NC(=O)c3cnc4ccccc4c3)cc1)CC2 [Compound 6, Quinoline-3-carboxylic acid (3-{4-[2-(6,7-dimethoxy-3,4-dihydro-1H-isoquinolin-2-yl)-ethyl]-phenylcarbamoyl}-4-methyl-thiophen-2-yl)-amide] |  | Potentiaton Index at RMA Concentration 10 nM (H69/LX4; Taxol): 1; Potentiaton Index at RMA Concentration 30 nM (H69/LX4; Taxol): 3; Potentiaton Index at RMA Concentration 50 nM (H69/LX4; Taxol, compound 50 nM): 9
COc1ccc(CN(C)CCc2ccc(NC(=O)c3ccccc3NC(=O)c3cnc4ccccc4c3)cc2)cc1OC [Compound 7, Quinoline-3-carboxylic acid [2-(4-{2-[(3,4-dimethoxy-benzyl)-methyl-amino]-ethyl}-phenylcarbamoyl)-phenyl]-amide] |  | Potentiaton Index at RMA Concentration 10 nM (H69/LX4; Taxol): 2.2
COc1cc2c(cc1OC)CN(CCNC(=O)c1ccccc1NC(=O)c1nccc3ccccc13)CC2 [Compound 27, Isoquinoline-1-carboxylic acid {2-[2-(6,7-dimethoxy-3,4-dihydro-1H-isoquinolin-2-yl)-ethylcarbamoyl]-phenyl}-amide] | 1000 | 
COc1cc2c(cc1OC)CN(CCNC(=O)c1ccccc1NC(=O)c1ccc3ccccc3n1)CC2 [Compound 28, Quinoline-2-carboxylic acid {2-[2-(6,7-dimethoxy-3,4-dihydro-1H-isoquinolin-2-yl)-ethylcarbamoyl]-phenyl}-amide] | 550 | 
COc1cc2c(cc1OC)CN(CCNC(=O)c1ccccc1NC(=O)c1cc3ccccc3cn1)CC2 [Compound 29, Isoquinoline-3-carboxylic acid {2-[2-(6,7-dimethoxy-3,4-dihydro-1H-isoquinolin-2-yl)-ethylcarbamoyl]-phenyl}-amide] | 300 | 
COc1cc2c(cc1OC)CN(CCc1ccc(NC(=O)c3cc(F)ccc3NC(=O)c3cnc4ccccc4c3)cc1)CC2 [Compound 33, Quinoline-3-carboxylic acid (2-{4-[2-(6,7-dimethoxy-3,4-dihydro-1H-isoquinolin-2-yl)-ethyl]-phenylcarbamoyl}-4-fluoro-phenyl)-amide] | 5 | 
COc1cc2c(cc1OC)CN(CCc1ccc(NC(=O)c3cc(OC)c(OC)cc3NC(=O)c3cnc4ccccc4c3)cc1)CC2 [Compound 34, Quinoline-3-carboxylic acid (2-{4-[2-(6,7-dimethoxy-3,4-dihydro-1H-isoquinolin-2-yl)-ethyl]-phenylcarbamoyl}-4,5-dimethoxy-phenyl)-amide] | 1.8 | 
COc1cc2c(cc1OC)CN(CCc1ccc(NC(=O)c3cc4c(cc3NC(=O)c3cnc5ccccc5c3)OCO4)cc1)CC2 [Compound 35, Quinoline-3-carboxylic acid (6-{4-[2-(6,7-dimethoxy-3,4-dihydro-1H-isoquinolin-2-yl)-ethyl]-phenylcarbamoyl}-benzo[1,3]dioxol-5-yl)-amide] | 1.4 | 
COc1cc2c(cc1OC)CN(CCc1ccc(NC(=O)c3ccc([N+](=O)[O-])cc3NC(=O)c3cnc4ccccc4c3)cc1)CC2 [Compound 36, Quinoline-3-carboxylic acid (2-{4-[2-(6,7-dimethoxy-3,4-dihydro-1H-isoquinolin-2-yl)-ethyl]-phenylcarbamoyl}-5-nitro-phenyl)-amide] | 3.8 | 
COc1cc2c(cc1OC)CN(CCc1ccc(NC(=O)c3cc(C)ccc3NC(=O)c3cnc4ccccc4c3)cc1)CC2 [Compound 37, Quinoline-3-carboxylic acid (2-{4-[2-(6,7-dimethoxy-3,4-dihydro-1H-isoquinolin-2-yl)-ethyl]-phenylcarbamoyl}-4-methyl-phenyl)-amide] | 15 | 
COc1cc2c(cc1OC)CN(CCc1ccc(NC(=O)c3ccc(C)cc3NC(=O)c3cnc4ccccc4c3)cc1)CC2 [Compound 38, Quinoline-3-carboxylic acid (2-{4-[2-(6,7-dimethoxy-3,4-dihydro-1H-isoquinolin-2-yl)-ethyl]-phenylcarbamoyl}-5-methyl-phenyl)-amide] | 5 | 
COc1cc2c(cc1OC)CN(CCc1ccc(NC(=O)c3cc(Cl)ccc3NC(=O)c3cnc4ccccc4c3)cc1)CC2 [Compound 39, Quinoline-3-carboxylic acid (2-{4-[2-(6,7-dimethoxy-3,4-dihydro-1H-isoquinolin-2-yl)-ethyl]-phenylcarbamoyl}-4-chloro-phenyl)-amide] | 5 | 
COc1cc2c(cc1OC)CN(CCc1ccc(NC(=O)c3ccc(Cl)cc3NC(=O)c3cnc4ccccc4c3)cc1)CC2 [Compound 40, Quinoline-3-carboxylic acid (2-{4-[2-(6,7-dimethoxy-3,4-dihydro-1H-isoquinolin-2-yl)-ethyl]-phenylcarbamoyl}-5-chloro-phenyl)-amide] | 40 | 
COc1cc2c(cc1OC)CN(CCc1ccc(NC(=O)c3ccc(N)cc3NC(=O)c3cnc4ccccc4c3)cc1)CC2 [Compound 41, Quinoline-3-carboxylic acid (2-{4-[2-(6,7-dimethoxy-3,4-dihydro-1H-isoquinolin-2-yl)-ethyl]-phenylcarbamoyl}-5-amino-phenyl)-amide] | 4400 | 
COc1cc2c(cc1OC)CN(CCc1ccc(NC(=O)c3ccccc3NC(=O)c3ccc4ccccc4n3)cc1)CC2 [Compound 42, Quinoline-2-carboxylic acid (2-{4-[2-(6,7-dimethoxy-3,4-dihydro-1H-isoquinolin-2-yl)-ethyl]-phenylcarbamoyl}-phenyl)-amide] | 70 | 
COc1cc2c(cc1OC)CN(CCc1ccc(NC(=O)c3ccccc3NC(=O)c3cnc4c(c3)CCCC4)cc1)CC2 [Compound 43, 5,6,7,8-Tetrahydroquinoline-3-carboxylic acid (2-{4-[2-(6,7-dimethoxy-3,4-dihydro-1H-isoquinolin-2-yl)-ethyl]-phenylcarbamoyl}-phenyl)-amide] | 50 | 
O=C(Nc1ccccc1C(=O)Nc1ccc(CCN2CCc3ccccc3C2)cc1)c1cnc2ccccc2c1 [Compound 44, Quinoline-3-carboxylic acid (2-{4-[2-(3,4-dihydro-1H-isoquinolin-2-yl)-ethyl]-phenylcarbamoyl}-phenyl)-amide] | 0.35 | 
COc1cc2c(cc1OC)CN(Cc1ccc(NC(=O)c3ccccc3NC(=O)c3cnc4ccccc4c3)cc1)CC2 [Compound 45, Quinoline-3-carboxylic acid {2-[4-(6,7-dimethoxy-3,4-dihydro-1H-isoquinolin-2-ylmethyl)-phenylcarbamoyl]-phenyl}-amide] | 22 | 
